Data from patent US4482568A, “Inhibition of alcohol metabolism by tetramethylene sulfoxides” (University of Iowa Research Foundation, priority 1983, dated 1984).
Like-named read-outs stand apart in the source and are kept apart here.

Key:
[1] = molecular target: T1, Rat liver alcohol dehydrogenase (Rattus norvegicus, UniProt P06757); assay: Inhibition of rat liver alcohol dehydrogenase in vitro (Kii against varied ethanol); format: biochemical
T1 construct: Rat liver alcohol dehydrogenase was partially purified; from tissue; host or cells: rat liver
Experimental: (§1) ^a The Kii values (intercept) inhibition constants in micromolar
(§2) units as determined against varied concentrations of ethanol as substrate
(§3) Purified or partially purified enzyme was tested under approximately
(§4) physiological conditions, pH 7.3 and 37° C., except that the
(§5) crystallized horse enzyme was tested at pH 7 and 25° C.
(§6) Crystallized horse liver alcohol dehydrogenase was freed from endogenous ethanol by filtration though a column of Sephadex G-50. Inhibition studies were carried out with varied concentrations of ethanol (0.4-2 mM) at 1 mM NAD+ in 46 mM sodium phosphate buffer, pH 7, at 25° C. In each experiment, at least three different concentrations of inhibitor were tested and 32 initial velocities were determined (as in FIGS. 2A and 3A of the Journal article). Data for noncompetitive inhibition were fitted to the equation v=VS/[Km (1+[…])+S(1+I/Kii)], whereas the equation for uncompetitive inhibition has no Kis term, and competitive inhibition has no Kii term. The equation giving the lowest standard errors and residual variance was concluded to give the best fit. Rat liver alcohol dehydrogenase was partially purified, and inhibition studies were performed as with the horse liver enzyme, except that the buffer was 83 mM potassium phosphate, pH 7.3, and 40 mM KCl, total ionic strength=0.25, and the temperature was 37.8° C. The concentration of NAD was 0.5 mM. These conditions are thought to resemble those found in vivo. The concentrations of ethanol were 0.4, 0.6, 1, and 2 mM, and the inhibitors were varied between 0 and 0.6 mM.

[2] = molecular target: Liver Alcohol Dehydrogenase (Monkey); assay: Inhibition of monkey liver alcohol dehydrogenase in vitro (Kii against varied ethanol); format: biochemical; details: purified or partially purified enzyme, pH 7.3, 37° C., ethanol varied as substrate
Experimental: as §1, §2, §3, §4, §5

ethanol metabolism [3] = assay: Blood alcohol concentration in rats after ethanol and inhibitor (FIG. 1); format: in vivo; details: 19.6 mmol/kg ethanol, 1 mmol/kg inhibitor
Experimental: In order to compare dimethyl sulfoxide and its potential as an inhibitor with the compounds of this invention, rats were given dosages of 19.6 millimoles per kilogram of body weight of alcohol and/or injections of one millimole per kilogram of body weight of the inhibitors, either dimethyl sulfoxide, tetramethylene sulfoxide, 3-methyltetramethylene sulfoxide, or 3-butyltetramethylene sulfoxide. After injection, the alcohol concentration in the blood was measured. The drawing reports the alcohol concentration. The line designated by the numeral 12 represents ethanol without any inhibitor. The line designated by 11 represents ethanol with dimethyl sulfoxide. The line represented by the numeral 13 represents ethanol with tetramethylene sulfoxide.

ethanol metabolism [4] = assay: Ethanol (elimination rate) metabolism in rats; format: in vivo, male Sprague-Dawley rats; details: for Ethanol (Elimination Rate) Metabolism In Rats, % Inhibition: 19.6 mmoles of ethanol/kg i.p. and 1 mmole/kg inhibitor, maximum obtainable about 85%
Experimental: ^b The Kii (intercept inhibition constant, micromoles/kg) was
determined with varied concentrations of inhibitor and ethanol by
determination of blood alohol concentrations. For a survey of inhibitory
potency, rats were given 19.6 mmoles of ethanol/kg body wt., i.p., and 1.
mmole of the inhibitor, and the percentage inhibition of ethanol
elimination was calculated with reference to an animal given no inhibitor
The maximum "inhibition" that can be obtained is about 85%, since some
ethanol is eliminated by excretion, rather than by oxidation by alcohol
^c The value was estimated from results from rats given 19.6 mmoles o
ethanol/kg and 0.1, 0.4, and 1.0 mmoles/kg of the inhibitor.
The precise experimental details for assembling the data shown in the above table are reported in our Journal of Medicinal Chemistry article, 1983, Vol. 26, No. 6, at page 921. The entire article is incorporated herein by reference. In particular, for the rat studies, inhibition of ethanol metabolism by the active compounds of this invention were studied in vitro in liver alcohol dehydrogenase from horses, monkeys and rats. The in vivo study of ethanol metabolism in rats, and in particular its inhibition was studied with male Sprague-Dawley rats, which were given intraperitoneal injections of active compounds (0.1 molar) in saline at doses of 0.0, 0.25 and 0.5 or 1.0 mmole/kg of body weight. Ten minutes later, ethanol was injected intraperitoneally at a dose of 19.6 mmoles/kg of body weight. Blood samples were taken at intervals, timed from the ethanol injection, and analyzed by gas chromatography.

[5] = molecular target: T2, horse liver alcohol dehydrogenase (Equus caballus, UniProt P00327); assay: Inhibition of horse liver alcohol dehydrogenase in vitro (Kii against varied ethanol); format: biochemical
T2 construct: Crystallized horse liver alcohol dehydrogenase; from tissue; host or cells: horse liver
Experimental: as §1, §2, §3, §4, §5, §6

[6] = tested on: isolated liver alcohol dehydrogenases; assay: Inhibition of ethanol oxidation by isolated liver alcohol dehydrogenases (general statements); format: biochemical
Experimental: as §6

[7] = tested on: alcohol dehydrogenases in the liver; details: background, cited from earlier work
[8] = tested on: ethanol induced loss of righting reflex; details: mice; Sharkawi 1979; cited from earlier work
[9] = partially purified enzyme, pH 7.3, 37° C., ethanol varied as substrate, read-out: Liver Alcohol Dehydrogenase, In Vitro, Kii, Rat
[10] = crystallized horse enzyme, pH 7, 25° C., ethanol varied as substrate, read-out: Liver Alcohol Dehydrogenase, In Vitro, Kii, Horse

T1 sequence (P06757 2-376 limits assumed): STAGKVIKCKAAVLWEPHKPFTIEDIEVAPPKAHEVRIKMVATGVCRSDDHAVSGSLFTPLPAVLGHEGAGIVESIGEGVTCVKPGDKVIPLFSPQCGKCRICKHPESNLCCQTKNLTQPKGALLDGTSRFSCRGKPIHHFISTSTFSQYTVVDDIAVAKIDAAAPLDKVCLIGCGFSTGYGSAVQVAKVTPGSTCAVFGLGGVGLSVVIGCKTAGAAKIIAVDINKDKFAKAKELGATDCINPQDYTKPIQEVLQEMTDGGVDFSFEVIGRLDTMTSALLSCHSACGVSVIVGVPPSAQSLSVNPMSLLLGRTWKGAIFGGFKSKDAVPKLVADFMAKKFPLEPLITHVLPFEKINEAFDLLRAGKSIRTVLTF
T2 sequence (P00327 2-375 limits assumed): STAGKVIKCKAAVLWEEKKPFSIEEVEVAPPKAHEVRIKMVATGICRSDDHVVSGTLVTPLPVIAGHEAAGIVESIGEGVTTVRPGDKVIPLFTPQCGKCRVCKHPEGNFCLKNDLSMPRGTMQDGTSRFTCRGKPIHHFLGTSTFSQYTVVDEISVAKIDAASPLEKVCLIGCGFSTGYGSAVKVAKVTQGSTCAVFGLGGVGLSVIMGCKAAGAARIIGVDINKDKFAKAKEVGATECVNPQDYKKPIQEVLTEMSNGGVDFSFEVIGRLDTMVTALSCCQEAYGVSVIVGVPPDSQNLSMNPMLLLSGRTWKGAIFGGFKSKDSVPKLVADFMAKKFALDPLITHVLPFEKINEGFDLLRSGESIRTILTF

Ki [1, 9] | Ki [2] | Ki [5, 10] | Compound | effectiveness as inhibitor of alcohol metabolism (blood alcohol concentration) (ethanol metabolism [3]) | Ethanol (Elimination Rate) Metabolism In Rats, % Inhibition (ethanol metabolism [4]) | other results
1.5 µM | 2.2 µM | 0.63 µM | CCCCC1CC[S+]([O-])C1 (stereo not shown) [3-Butyltetramethylene sulfoxide, 3-butylthiolane-1-oxide] | far superior to even tetramethylene sulfoxide | 76% | –
18 µM | 450 µM | 7.5 µM | CC1CC[S+]([O-])C1 (stereo not shown) [3-Methyltetramethylene sulfoxide, 3-Methylthiolane-1-oxide] | far superior to even tetramethylene sulfoxide | 72% | Ethanol (Elimination Rate) Metabolism In Rats, Kii (estimated) (ethanol metabolism [4]; estimated from rats given 19.6 mmoles of ethanol/kg and 0.1, 0.4, and 1.0 mmoles/kg of inhibitor): 150 µmol/kg
– | – | – | C[S+](C)[O-] [dimethyl sulfoxide, reference compound] | not effective as an inhibitor | – | inhibitory effect on alcohol metabolism ([7]; Sharkawi, Toxicology Letters 1979): some slight inhibitory effect; effect on ethanol induced loss of righting reflex [8]: significantly "prolong the ethanol induced loss of righting reflex in mice"; inhibition constant with horse liver alcohol dehydrogenase ([5]; stated for comparison): four to five
– | – | – | CCO [ethanol] | – | – | type of inhibition [7]: competitive inhibitor; effectiveness as inhibitor ([7]; ethanol as treatment for toxic alcohol ingestion): not a very effective inhibitor

Compound | Ki [1, 9] | Ki [2] | Ki [5, 10] | effectiveness as inhibitor of alcohol metabolism (blood alcohol concentration) (ethanol metabolism [3]) | Ethanol (Elimination Rate) Metabolism In Rats, % Inhibition (ethanol metabolism [4]) | other results
[O-][S+]1CCCC1 [Tetramethylene Sulfoxide, tetramethylene sulfoxide] | – | 1700 µM | – | far more effective | 63% | Ki [1]: 200 µM; inhibition of ethanol oxidation by isolated liver alcohol dehydrogenases (in words) [6]: exceptionally potent inhibitors; inhibition of ethanol metabolism in animals (in words) (ethanol metabolism [4]; animals/rats): effectively inhibit ethanol metabolism in animals; Ethanol (Elimination Rate) Metabolism In Rats, Kii (ethanol metabolism [4]; intercept inhibition constant, varied concentrations of inhibitor and ethanol, blood alcohol concentrations, i.p.): 340 µmol/kg; Ki [5]: 19 µM
